Assay results reported in ChEMBL document CHEMBL1157539, “Thousands of chemical starting points for antimalarial lead identification” (Nature, 2010).

What follows are compounds tested on Plasmodium falciparum (assay: GSK_TCMDC: Inhibition of Plasmodium falciparum 3D7 in whole erythrocytes, using parasite LDH activity as an index of growth.). Settings: Plasmodium falciparum, 3D7.
Format: functional, organism-based

Compound | XC50
CCc1sc(-c2ccc(C(C)(C)C)cc2)nc1C(=O)NCCCN1CCCC1=O | 988 nM
Fc1cccc(COc2ccc(Nc3ncnc4sc(C#C[C@H]5CCCN5)cc34)cc2F)c1 | 871 nM
Cc1cccc2nc(-c3ccc(-c4ccc(NC(=O)C(C)CN(C)C)cc4)s3)[nH]c12 (stereo not drawn) | 409 nM
CN1CCC(c2csc3ccc(NC(=O)Nc4ccc(-c5ccncc5)c5ccccc45)cc23)CC1 | 1020 nM
Cc1cc(NCCCCCCCCNc2cc(C)nc3ccccc23)c2ccccc2n1 | 985 nM
O=S(=O)(Nc1ccc(CCN2CCC(N3CCCCC3)CC2)cc1)c1ccc2ccccc2c1 | 1010 nM
Cc1ccc(NC(=O)c2cc(S(=O)(=O)NC(C)(C)C)ccc2C)nc1 | 756 nM
COC(=O)c1ccc(C2OC3(C(=O)c4ccccc4C3=O)C(OC)=C2Cl)cc1C(C)=O (stereo not drawn) | 546 nM
O=C(NCc1ccccn1)C(c1cc2ccccc2o1)N1CCN(C(c2ccccc2)c2ccccc2)CC1 (stereo not drawn) | 856 nM
Cc1ccnc(NC(c2cccc(OCc3ccccc3)c2)c2ccc3cccnc3c2O)c1 (stereo not drawn) | 864 nM
COc1ccc2ncc(Cl)c(CCN3C[C@H](CNCc4ccc5c(n4)NC(=O)CS5)[C@H](O)C3)c2n1 | 1000 nM
O=C(Nc1ccc(F)cc1)N1CCCN(c2ccnc3cc(Cl)ccc23)CC1 | 785 nM
C=C(C)Cn1cc(C2CCN(CCN3CCC(CNC(=O)c4ccc(-c5ccc(C#N)cc5)cc4)CC3)CC2)c2ccccc21 | 433 nM
O=C(Nc1ccc(F)cc1)NC1CCN(CCCCCNC(=O)C2CC2c2ccc(Cl)c(Cl)c2)CC1 (stereo not drawn) | 987 nM
CCN1CCC(N2CCC(C(=O)Nc3cccc(-c4cccc(Cl)c4)c3)CC2)CC1 | 1080 nM
CC(Cc1ccc(C(=O)Nc2ccc(CC(C)NCCc3cccc(Cl)c3)cc2)cc1)NCCc1ccc(C(F)(F)F)cc1 (stereo not drawn) | 570 nM
O=S(=O)(c1ccc(OCc2ccc(Cl)cc2)cc1)c1cc2c(cc1O)CCN(C1CCC1)CC2 | 942 nM
COc1cc2nc(Cl)nc(Nc3ccncc3)c2cc1OC | 1210 nM
c1ccc(-c2cc(NCCCCCCCCNc3cc(-c4ccccc4)nc4ccccc34)c3ccccc3n2)cc1 | 395 nM
COc1ccc(OC)c(NC(=O)CSc2nc(-c3ccccc3Cl)ns2)c1 | 835 nM
CCN(CC)CCCCNc1cc(-c2[nH]c(C(C)(C)C)nc2-c2ccc3cc(OC)ccc3c2)ccn1 | 531 nM
CC(C)CC1c2[nH]c3ccccc3c2CCN1C(=O)CCc1ccccc1 (stereo not drawn) | 965 nM
CCOC(=O)c1c(CN2CCN(C)CC2)n(Cc2ccccc2)c2cc(Br)c(O)cc12 | 595 nM
Cc1cccc2nc(-c3cccc(-c4cccc(C(=O)N5CCCCC5CN5CCC(O)C5)c4)c3)[nH]c12 (stereo not drawn) | 463 nM

Compound | XC50
CC(C)NCc1cc(Nc2ccnc3cc(Cl)ccc23)ccc1O | 25 nM
Cc1ccc(C)c2sc(N(CCCn3ccnc3)C(=O)c3ccco3)nc12 | 874 nM
O=C(NCCCCN1CCC(c2ccc3c(c2OCCCO)CCCC3)CC1)c1ccc(-c2ccc(C(F)(F)F)cc2)cc1 | 718 nM
CCCCCCOc1ccc(C(=O)N(Cc2ccccc2)c2c(-c3ccccc3)nc3cc(C)ccn23)cc1 | 774 nM
O=C(CSc1nc2ccccc2c(=O)n1C1CC1)Nc1cc(C(F)(F)F)ccc1Cl | 108 nM
Cc1cc(N[C@@H](CC(C)C)C(=O)Nc2ccccc2)nc(NCc2ccccc2C)n1 | 777 nM
CCCc1cc(N2CCC(N3CCCC3)CC2)nc(Nc2ccc(Cl)cc2)n1 | 765 nM
CCN(CC)CCCC(C)Nc1c2ccccc2nc2ccc3ccccc3c12 (stereo not drawn) | 1040 nM
COc1cc(C(=O)NC2CCN(Cc3ccccc3)CC2)ccc1-c1nc2cc(Cl)c(C)cc2[nH]1 | 304 nM
Cc1ccccc1C1CCN(C2CCC(NC(=O)/C=C/c3cc(C(F)(F)F)ccc3F)CC2)CC1 (stereo not drawn) | 839 nM
COc1ccc(Nc2ccnc3cc4ccccc4cc23)cc1 | 683 nM
CCOC(=O)C1=C(C)NC(C)=C(C(=O)OCC)C1(C(=O)OCc1ccccc1)c1cccc(C(F)(F)F)c1 | 1230 nM
Cc1cc(N(C)C)nc(Nc2ccc(NC(=O)Nc3ccccc3)cc2)n1 | 134 nM
Cc1ccc2c(=O)n(C)c(=O)n(C)c2n1 | 819 nM
Cc1ccc(S(=O)(=O)N2CCN(C(=O)c3cc(-c4cccs4)n[nH]3)CC2)c(C)c1 | 866 nM
Cc1cccc2[nH]cc(C3CCN(CCC4CCN(C(=O)/C=C/c5ccc(Cl)c(Cl)c5)CC4)CC3)c12 | 1220 nM
OC(c1ccccc1)C1CN(CCC2CC3CCC2C3)CCC1(O)c1ccccc1 (stereo not drawn) | 346 nM
CC1CCC(NC(=O)c2nn(-c3ccc(Cl)cc3)c(=O)c3ccccc23)CC1 (stereo not drawn) | 1080 nM
CC[C@H]1CN2CCc3c([nH]c4ccccc34)[C@@H]2C[C@@H]1CC1c2cc(OC)c(OC)cc2CCN1C (stereo partly drawn) | 1090 nM
COc1cc(Nc2nccc(N3CCC(NC(=O)C(C)c4ccc(Cl)cc4)C3)n2)cc(OC)c1OC (stereo not drawn) | 757 nM
OCCNc1nc(Nc2ccc(Cl)cc2)nc2ccccc12 | 708 nM
COc1cc(NCC(CN)Cc2ccc3c(c2)OCO3)nc2ccccc12 (stereo not drawn) | 820 nM
Cc1ccc(NC(=O)c2ccc(NCCCN(C)Cc3ccccc3)c([N+](=O)[O-])c2)cc1F | 701 nM
O=C(/C=C/c1ccc(Cl)c(Cl)c1)NCCCCCN1CCC(NC(=S)Nc2ccc(Cl)cc2)CC1 | 443 nM
